“And” between values parts separate entries of the source, which are not always exact repeats. Identical values can stand only once.
Legend:
[1] = system: mRNA encoding ATF3, IL-6 and BDNF; experiment: Real time qRT-PCR of mRNA in trigeminal ganglion and Sp5c of CCI-ION rats; assay type: in vivo, rat; conditions: subchronic 10 mg/kg i.p. twice daily; ipsilateral trigeminal ganglion and Sp5c area; 4 h after last injection
Method: Subchronic treatment consisted of twice daily injections of tapentadol (10 mg/kg, i.p. at 10:00 am and 6:00 pm) or saline for 4 days starting on the 15th day after nerve ligation in both CCI-ION and CCI-SN rats. Animals were further injected with tapentadol (10 mg/kg i.p.) or saline at 10:00 am the following day (19th day post-surgery), and assessment of allodynia with von Frey filament tests (see below) was made at various times up to 4 hours after this injection. All rats were killed by decapitation 4 hours after the last injection for real-time qRT-PCR determinations of specific mRNAs in ganglia and central tissues (see below).
Animals used for qRT-PCR procedure were decapitated immediately after performance of von Frey filament test four hours after the last injection of tapentadol or saline for subchronic treatment conditions (see above). […]
First-stranded cDNA synthesis (from 660 ng total RNA per 20 μl reaction mixture) was carried out using SuperScript™ III Reverse Transcriptase and random primers (250 ng per reaction), as recommended by the manufacturer (Invitrogen, Cergy Pontoise, France). […] Semi-quantitative determinations were made with reference to the reporter gene encoding glyceraldehyde 3-phosphate dehydrogenase (GaPDH; Rn99999916_sl). […] Specific mRNA levels were calculated after normalizing from GaDPH mRNA in each sample (Latrémolière et al., 2008). […]

[2] = system: male albino rats (Sprague Dawley) with paw incision; experiment: Paw incision model for postoperative pain (electronic von Frey, tactile withdrawal threshold); assay type: in vivo, rat
From the text: Post operative, incisional pain is a common form of persistent, acute pain. Brennan et al. (Brennan T J, Vandermeulen E P, and Gebhart G F. Characterization of a rat model of incisional pain. Pain 1996; 64:493-501) developed a post operative model in rats with surgical intervention on the plantar surface of the hind foot for the evaluation of novel analgesic therapeutics. A surgical incision of the rat foot causes a reliable and quantifiable tactile hypersensitivity during the initial post operative period and lasting for several days after surgery. This model may thus be useful for predicting analgesia by investigational agents for post operative pain.
The experiments were carried out in male albino rats (Sprague Dawley) with 170 g-230 g body weight from a commercial breeder (Charles River, Germany). Surgery was performed as previously described. Brennan et al. (Brennan T J, Vandermeulen E P, and Gebhart G F. Characterization of a rat model of incisional pain. Pain 1996; 64:493-501). Briefly, rats were anaesthetised with isoflurane, and a 1 cm longitudinal incision was made, through skin and fascia of the plantar aspect of the foot, starting from the proximal edge of the heel and extending toward the metatarsal toes. The plantaris muscle was elevated and incised longitudinally. The muscle origin and insertion remained intact. After spreading of the muscle and haemostasis with gentle pressure, the skin was closed with two single interrupted sutures. After surgery, the rats were allowed to recover in their home cages and the animals regained consciousness within 2 to 5 minutes. In order to ensure a complete recovery from anaesthesia the baseline value of each individual animal was recorded not until 2 hours after surgery.
The rats were placed in a plastic cage with a wire mesh bottom which allowed full access to the paws. Hind paw withdrawal threshold after mechanical stimulation was tested with electronic von Frey hairs (Somedic Sales AB, Hörby, Sweden). Ten rats were used per experimental group. Animals were placed in a plastic cage with a wire mesh bottom which allowed full access to the paws. Behavioral accommodation was allowed for 30 min. In each case, withdrawal response was measured at an area adjacent to the wound (ipsilateral) and to the same area on the non-injured foot (contralateral). Two hours after surgery, primary hypersensitivity was tested as tactile withdrawal threshold (tactile hyperalgesia) shortly before drug administration and at different time points after drug application. Animals injected with vehicle served as controls. The pretest measurement was made prior to surgery and two thresholds were taken per test and averaged. Ten rats were used per experimental group. Tactile withdrawal threshold was measured pre and after substance administration from day 1 to day 5 post surgery. From day 6 to day 13 post surgery the withdrawal threshold was measured without substance administration (wash out phase). The efficacy was expressed as MPE %=% of maximal possible effect, whereas MPE is defined as 100% reversal of tactile hyperalgesia compared to vehicle group.
Tapentadol at the dose of 14.7 mg/kg intraperitoneal route (i.p.) was adminstered twice daily (BID) (7 a.m./7 p.m.) throughout day 1 to day 5. The first administration was given 20 min before surgery on day 1. From day 6 to day 13 no substance was given (wash out phase) The study scheme is schematically illustrated in FIG. 1.

## CC[C@@H](c1cccc(O)c1)[C@@H](C)CN(C)C [Tapentadol, (−)-(1R,2R)-3-(3-dimethylamino-1-ethyl-2-methyl-propyl)-phenol]
[1]
  ATF3, IL-6 and BDNF mRNA levels: had no significant effects
[2]; 14.7 mg/kg i.p. BID day 1-5, washout day 6-13
  effect on sustained tactile hyperalgesia following surgical lesion: outlasts treatment duration
[2]; 14.7 mg/kg i.p. BID day 1-5, d 2_0.5 h (0.5 h after treatment on day 2 after surgery)
  MPE % (reversal of tactile hyperalgesia): 38.3±5.48% and 38.3 ± 4.58 %
[2]; 14.7 mg/kg i.p. BID, d 3-0.5 h
  MPE % (reversal of tactile hyperalgesia): 36.8 ± 2.41 %
[2]; 14.7 mg/kg i.p. BID, d 4-0.5 h
  MPE % (reversal of tactile hyperalgesia): 34.5 ± 3.27 %
[2]; 14.7 mg/kg i.p. BID, d 5-0.5 h (last day of treatment)
  MPE % (reversal of tactile hyperalgesia): 22.8 ± 5.29 %
[2]; 14.7 mg/kg i.p. BID, d 5-0.5 h (last day of treatment), listed as tapentadol
  MPE % (reversal of tactile hyperalgesia): 22.8±5.29%
[2]; 14.7 mg/kg i.p. BID, pre-d 3 (before administration, day 3)
  MPE % (reversal of tactile hyperalgesia): −0.6 ± 2.21 n.s. %
[2]; 14.7 mg/kg i.p. BID, pre-d 4
  MPE % (reversal of tactile hyperalgesia): −6.00 ± 1.63 %
[2]; 14.7 mg/kg i.p. BID, pre-d 5
  MPE % (reversal of tactile hyperalgesia): −6.60 ± 1.67 %
[2]; after 7 days of washout
  remaining efficacy as % of the efficacy after substance treatment on day 5: 39%
[2]; day 9 (washout)
  remaining efficacy as % of the efficacy after substance treatment on day 5: 74%
[2]; pre-d 8, washout phase (third day of washout) after 14.7 mg/kg i.p. BID day 1-5
  MPE % (reversal of tactile hyperalgesia): 2.60 ± 2.51 n.s. %
[2]; pre-d 8, washout phase (third day of washout) after 14.7 mg/kg i.p. BID day 1-5, listed as tapentadol
  MPE % (reversal of tactile hyperalgesia): 3%
[2]; pre-d 10, washout phase after 14.7 mg/kg i.p. BID day 1-5
  MPE % (reversal of tactile hyperalgesia): 11.4 ± 3.21 %
[2]; pre-d 11, washout phase after 14.7 mg/kg i.p. BID day 1-5
  MPE % (reversal of tactile hyperalgesia): 8.90 ± 2.59 %
[2]; pre_d 9, washout phase after 14.7 mg/kg i.p. BID day 1-5
  MPE % (reversal of tactile hyperalgesia): 17.2 ± 3.43 %
[2]; pre_d 9, washout phase after 14.7 mg/kg i.p. BID day 1-5, listed as tapentadol
  MPE % (reversal of tactile hyperalgesia): 17%
[2]; pre_d 12, washout phase (7 days of washout) after 14.7 mg/kg i.p. BID day 1-5
  MPE % (reversal of tactile hyperalgesia): 8.60 ± 3.94 %
[2]; pre_d 12, washout phase (7 days of washout) after 14.7 mg/kg i.p. BID day 1-5, listed as tapentadol
  MPE % (reversal of tactile hyperalgesia): 9%

Source: US10813891B2, “Method of inhibiting chronification of pain” (priority 2011, dated 2020)
